The values that follow come from patent US11590116B2 (THERAVANCE BIOPHARMA R&D IP, LLC, priority 2019, dated 2023).

For assay [1], the system named is TGF-β-stimulated SMAD3 phosphorylation in BEAS-2B cells. The assay can be described thus: Cellular ALK5 potency assay, inhibition of TGF-β stimulated pSMAD3 formation in BEAS-2B cells. The assay is classed as cell-based. As to conditions: Homo sapiens; inhibition of TGF-β stimulated pSMAD3 formation, BEAS-2B cells; read-out: BEAS2B pIC50 (converted). The procedure, abridged:
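Cells seeded overnight; rinse with supplemented HBSS; compound 1 h at 37 °C; TGF-β 10 ng/mL final, 30 min; lyse; AlphaLISA acceptor and detector beads 2 h apart, read next day. Potency expressed as pIC50.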

Assay [2] deals with T1, recombinant human ALK5 (TGF-βR1) protein (Homo sapiens, UniProt P36897).
T1 construct: purchased Life Technologies PR9075A
T1 sequence (P36897 34-503): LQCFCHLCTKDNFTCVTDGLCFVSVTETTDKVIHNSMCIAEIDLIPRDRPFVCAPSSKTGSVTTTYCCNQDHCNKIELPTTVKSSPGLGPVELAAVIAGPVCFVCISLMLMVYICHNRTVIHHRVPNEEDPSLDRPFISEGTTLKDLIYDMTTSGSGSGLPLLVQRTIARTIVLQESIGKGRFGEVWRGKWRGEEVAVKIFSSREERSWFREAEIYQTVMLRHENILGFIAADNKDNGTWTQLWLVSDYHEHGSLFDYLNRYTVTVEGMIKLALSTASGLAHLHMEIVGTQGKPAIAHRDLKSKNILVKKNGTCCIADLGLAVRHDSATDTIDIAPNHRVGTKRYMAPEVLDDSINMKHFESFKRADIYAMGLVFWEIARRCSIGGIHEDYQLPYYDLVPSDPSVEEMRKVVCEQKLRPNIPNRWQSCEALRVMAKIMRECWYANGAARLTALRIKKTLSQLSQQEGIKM
Put plainly: Biochemical ALK5 (TGF-βR1) assay to measure pKi (LANCE Ultra ULight kinase assay). To be noted: apparent pKi from pIC50 by Cheng-Prusoff, read-out: ALK5 pKi (converted). The procedure, abridged: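 After a 60 min room-temperature preincubation of ALK5 with compound, phosphorylation proceeds 60 min at 37 °C on ATP addition (125 μM as 5× stock). Detection: Eu-labelled phospho-Thr1342 Topo IIα antibody in EDTA buffer, pH 7.0; emission 665 nm.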
For orientation: In TR-FRET formats the signal depends on donor and acceptor labels being close together.

As to `Cc1cccc(-c2[nH]cnc2-c2ccc3ncc(-c4ccc(C(=O)OCCN5CCNCC5)s4)cc3c2)n1` [Compound 1088, 2-piperazin-1-ylethyl 5-[6-[5-(6-methyl-2-pyridyl)-1H-imidazol-4-yl]-3-quinolyl]thiophene-2-carboxylate], the IC50 in assay [1] is 25.1 to 158 nM. Moreover, the Ki in assay [2] was 0.0398 to 0.316 nM.

For the compound `CCOC(=O)CCc1cnc2ccc(-c3c[nH]nc3-c3cccc(C)n3)nc2c1` [Compound 499, ethyl 3-[6-[3-(6-methyl-2-pyridyl)-1H-pyrazol-4-yl]-1,5-naphthyridin-3-yl]propanoate], the IC50 in assay [1] is 25.1 to 158 nM. The Ki in assay [2] was 0.0398 to 0.316 nM.

For `Cc1cccc(-c2[nH]cnc2-c2ccc3ncc(Nc4ccc(N5CCNCC5)cn4)cc3c2)n1` [Compound 519, 6-[5-(6-methyl-2-pyridyl)-1H-imidazol-4-yl]-N-(5-piperazin-1-yl-2-pyridyl)quinolin-3-amine], the IC50 in assay [1] was 200 to 1260 nM. Further, the Ki in assay [2] was 0.0398 to 0.316 nM.

Take `Cc1cccc(-c2n[nH]cc2-c2ccc3ncc(NCC4CN5CCN4CC5)cc3n2)n1` (centres unmarked) [Compound 566, N-(1,4-diazabicyclo[2.2.2]octan-2-ylmethyl)-6-[3-(6-methyl-2-pyridyl)-1H-pyrazol-4-yl]-1,5-naphthyridin-3-amine]: the IC50 in assay [1] is 25.1 to 158 nM. Besides, in assay [2], the Ki was 0.0398 to 0.316 nM.

Consider `Cc1nc(-c2n[nH]cc2-c2ccc3ncc(N4CCN(CCO)CC4)cc3n2)ccc1F` [Compound 509, 2-[4-[6-[3-(5-fluoro-6-methyl-2-pyridyl)-1H-pyrazol-4-yl]-1,5-naphthyridin-3-yl]piperazin-1-yl]ethanol], for which, in assay [1], the IC50 was 25.1 to 158 nM. Besides, the Ki in assay [2] is less than 0.0316 nM.

In the case of `Cc1cccc(-c2n[nH]cc2-c2ccc3ncc(-c4ccccc4)cc3n2)n1` [Compound 398, 2-[3-(6-methyl-2-pyridyl)-1H-pyrazol-4-yl]-7-phenyl-1,5-naphthyridine], in assay [1], the IC50 was less than 20 nM. The Ki in assay [2] is less than 0.0316 nM.

Turning to `Cc1cccc(-c2n[nH]cc2-c2ccc3ncc(-c4cnn5c4NCC5)cc3n2)n1` [Compound 570, 7-(2,3-dihydro-1H-imidazo[1,2-b]pyrazol-7-yl)-2-[3-(6-methyl-2-pyridyl)-1H-pyrazol-4-yl]-1,5-naphthyridine], the IC50 in assay [1] was less than 20 nM. In addition, in assay [2], the Ki is less than 0.0316 nM.

As for `Cc1cccc(-c2n[nH]cc2-c2ccc3ncc(N4CC(CN)C4)cc3n2)n1` [Compound 279, [1-[6-[3-(6-methyl-2-pyridyl)-1H-pyrazol-4-yl]-1,5-naphthyridin-3-yl]azetidin-3-yl]methanamine], the IC50 in assay [1] is 25.1 to 158 nM. Besides, the Ki in assay [2] is 0.0398 to 0.316 nM.

Regarding `Cc1cccc(-c2n[nH]cc2-c2ccc3nccc(N4CCC(N5CCN(C)CC5)CC4)c3n2)n1` [Compound 845, 8-[4-(4-methylpiperazin-1-yl)-1-piperidyl]-2-[3-(6-methyl-2-pyridyl)-1H-pyrazol-4-yl]-1,5-naphthyridine], in assay [1], the IC50 is 200 to 1260 nM. In addition, the Ki in assay [2] was 0.398 to 3.16 nM.

As to `Cc1cccc(-c2[nH]cnc2-c2ccc3ncc(C4=CCCNC4)cc3c2)n1` [Compound 259, 6-[5-(6-methyl-2-pyridyl)-1H-imidazol-4-yl]-3-(1,2,3,6-tetrahydropyridin-5-yl)quinoline], the IC50 in assay [1] is less than 20 nM. In addition, in assay [2], the Ki is 0.0398 to 0.316 nM.

For the compound `CNCCn1cc(-c2cnc3ccc(-c4c(-c5cccc(C)n5)nnn4Cc4ccccc4)cc3c2)cn1` [Compound 498, 2-[4-[6-[3-benzyl-5-(6-methyl-2-pyridyl)triazol-4-yl]-3-quinolyl]pyrazol-1-yl]-N-methyl-ethanamine], the IC50 in assay [1] is 25.1 to 158 nM. In addition, the Ki in assay [2] was 0.0398 to 0.316 nM.

As for `Cc1cccc(-c2n[nH]cc2-c2ccc3nccc(CN4CCC(N5CCOCC5)CC4)c3n2)n1` [Compound 849, 4-[1-[[6-[3-(6-methyl-2-pyridyl)-1H-pyrazol-4-yl]-1,5-naphthyridin-4-yl]methyl]-4-piperidyl]morpholine], the IC50 in assay [1] is 200 to 1260 nM. In addition, the Ki in assay [2] was 0.398 to 3.16 nM.

As for `Cc1cccc(-c2n[nH]cc2-c2ccc3ncc(N4CC(N)C4)cc3n2)n1` [Compound 193, 1-[6-[3-(6-methyl-2-pyridyl)-1H-pyrazol-4-yl]-1,5-naphthyridin-3-yl]azetidin-3-amine], the IC50 in assay [1] is 25.1 to 158 nM. The Ki in assay [2] is 0.0398 to 0.316 nM.

In the case of `Cc1cccc(-c2nc3ccccn3c2-c2ccc3ncc(N4CCCNCC4)cc3n2)n1` [Compound 646, 7-(1,4-diazepan-1-yl)-2-[2-(6-methyl-2-pyridyl)imidazo[1,2-a]pyridin-3-yl]-1,5-naphthyridine], the IC50 in assay [1] is 25.1 to 158 nM. Further, the Ki in assay [2] was 0.0398 to 0.316 nM.

As to `CCOc1nc(-c2ccc3ncc(Br)cc3c2)c(-c2cccc(C)n2)[nH]1` [Compound 1185, 3-bromo-6-[2-ethoxy-5-(6-methyl-2-pyridyl)-1H-imidazol-4-yl]quinoline], the IC50 in assay [1] was 25.1 to 158 nM. For the same compound, the Ki in assay [2] was 0.398 to 3.16 nM.

As for `Cc1cccc(-c2[nH]cnc2-c2ccc3ncc(-c4cnc(C(=O)OC5CNC5)nc4)cc3c2)n1` [Compound 1112, azetidin-3-yl 5-[6-[5-(6-methyl-2-pyridyl)-1H-imidazol-4-yl]-3-quinolyl]pyrimidine-2-carboxylate], in assay [1], the IC50 is 1580 to 10000 nM. In addition, in assay [2], the Ki was 0.398 to 3.16 nM.

Take `Cc1cccc(-c2n[nH]cc2-c2ccc3ncc(N4CCN(Cc5cccnc5)CC4)cc3n2)n1` [Compound 132, 2-[3-(6-methyl-2-pyridyl)-1H-pyrazol-4-yl]-7-[4-(3-pyridylmethyl)piperazin-1-yl]-1,5-naphthyridine]: the IC50 in assay [1] was 25.1 to 158 nM. In assay [2], the Ki was 0.0398 to 0.316 nM.

On to `Cc1cccc(-c2n[nH]cc2-c2ccc3nccc(CCCN4CCOCC4)c3n2)n1` [Compound 812, 4-[3-[6-[3-(6-methyl-2-pyridyl)-1H-pyrazol-4-yl]-1,5-naphthyridin-4-yl]propyl]morpholine], for which, in assay [1], the IC50 was 200 to 1260 nM. Moreover, in assay [2], the Ki was 0.398 to 3.16 nM.

As for `Cc1cccc(-c2[nH]cnc2-c2ccc3ncc(C(=O)OC[C@H]4CCC[C@H](N)C4)cc3c2)n1` (racemic) [Compound 769, [rac-(1S,3S)-3-aminocyclohexyl]methyl 6-[5-(6-methyl-2-pyridyl)-1H-imidazol-4-yl]quinoline-3-carboxylate], in assay [1], the IC50 was 25.1 to 158 nM. In addition, the Ki in assay [2] is 0.0398 to 0.316 nM.

As to `Cc1cccc(-c2[nH]cnc2-c2ccc3ncc(N4CC5(CCCNC5)C4)cc3c2)n1` [Compound 159, 3-(2,8-diazaspiro[3.5]nonan-2-yl)-6-[5-(6-methyl-2-pyridyl)-1H-imidazol-4-yl]quinoline], in assay [1], the IC50 was less than 20 nM. For the same compound, the Ki in assay [2] is less than 0.0316 nM.

Take `Cc1cccc(-c2n[nH]cc2-c2ccc3ncc(NC(=O)CCCN4CCOCC4)cc3n2)n1` [Compound 358, N-[6-[3-(6-methyl-2-pyridyl)-1H-pyrazol-4-yl]-1,5-naphthyridin-3-yl]-4-morpholino-butanamide]: the IC50 in assay [1] was 25.1 to 158 nM. For the same compound, in assay [2], the Ki is 0.0398 to 0.316 nM.

Turning to `Cc1cccc(-c2n[nH]cc2-c2ccc3ncc(N4CCCNCC4)cc3c2)n1` [Compound 580, 3-(1,4-diazepan-1-yl)-6-[3-(6-methyl-2-pyridyl)-1H-pyrazol-4-yl]quinoline], the IC50 in assay [1] is 25.1 to 158 nM. Further, the Ki in assay [2] was 0.0398 to 0.316 nM.
